From patent US5955434A, “Gel-forming polypeptide derivatives” (Brigham & Women's Hospital, priority 1996, dated 1999)
Residues, ends and D or L forms follow the SMILES beside them. *: point of attachment. Fmoc = O=C(OCC1c2ccccc2-c2ccccc21)*; Boc = CC(C)(C)OC(=O)*

Key:
[1] = Aqueous gel formation of Fmoc-protected peptides; assay type: physicochemical; settings: for Gel formed / Gel formed (minimum conc., %): aqueous gels
Experimental: Aqueous gels of the synthesized compounds can be made by several methods which are outlined here and more fully described in the examples.
1. Finely ground dipeptide or tripeptide compound is suspended in boiling water, the mixture is briefly and vigorously mixed or shaken and left to cool. Between 50-60° C. gelation occurrs. This procedure can be repeated to obtain a more homogeneous mixture and a stronger gel.
2. The dipeptide or tripeptide compound is dissolved in a minimal volume of organic solvent which is miscible in water, and at room temperature a small volume of the solution is added to a large volume of water with rapid mixing, after which the gel forms.
3. Methods 1 and 2 can be combined.
(§1) Boil 10 ml water and suspend in it 0.8% finely ground compound 5 of Table 2. Strongly shake or stir the suspension then let stand 10-15 minutes. On cooling the solution becomes turbid at 50-60° C. and at room temperature a gel forms. The gel can be reheated, agitated and recooled. When repeated several times, a stronger gel forms.

[2] = Incorporation of low molecular weight drugs into Fmoc-Leu-Asp gels; assay type: physicochemical; settings: Fmoc-Leu-Asp gel 10 mg/ml=21 mM
Experimental: (§2) The low molecular weight drugs 3,5-dimethyl-1-adamantanamine hydrochloride (Ada2Me) and 5-methyl-1-adamantanamine 3-carboxylic acid (AdaMeC) can also be incorporated into the Fmoc-Leu-Asp gels (10 mg/ml=21 mM) at concentrations of […] and 33 mM, respectively. At higher total concentrations, (>5 mM Ada2Me or >33 mM AdaMeC) these agents inhibit gelation. […] Fmoc-Leu-Asp alone produced antibodies with titers no greater than 1:4.

rabbits = test: Immunization of rabbits, antibody titers (double diffusion in agarose gel, reverse radial diffusion, passive hemagglutination); assay type: in vivo, rabbit; settings: for production of specific antibodies, injected alone: rabbits, Ada2Me 5 mM, AdaMeC 33 mM
Experimental: as §2
Female random-bred rabbits were immunized three times, at weekly intervals and bled on the 24th day. A full dose was used for the first two immunizations, and a half of the full dose for the third immunization. Full doses of the BSA conjugates were 100 μg total protein. Before injections, AdaMeC-BSA and AdaMeC-Bal-BSA solutions were diluted with equal volumes of complete Freund's adjuvant, but AdaMeC+dipeptide gel was diluted with an equal volume of 0.01M phosphate buffer; pH 7.4. The volume of immunogen solutions injected each time was 1 ml. Immune sera were analyzed by two immunoprecipitation assays, the double diffusion in agarose gel and the reverse radial immunodiffusion, as described by Oudin, J. Meth. Enzymol., 70, 166-98 (1980). As shown in FIG. 8A double diffusion in agarose was used to determine the titer of antibodies recognizing AdaMeC-containing conjugates in sera of rabbits immunized with AdaMeC-coupled with or without a beta-alanine (Bal) spacer to BSA in complete Freunds adjuvant or with AdaMeC mixed with Fmoc-Leu-Asp without adjuvant. The antisera were tested against each of the three immunogens and compared to sera of rabbits injected with either AdaMeC or Fmoc-Leu-Asp-alone. And as shown in FIG. 8B the passive hemagglutination test, as described in Adler, F. L. & Adler, L. T., Meth. Enzymol., 70, 455-66 (1980), was used to analyze antisera of rabbits immunized with each of the three AdaMeC conjugates after challenge with the three AdaMeC conjugates, AdaMeC alone or Ada2Me. In the first two assays, the solid phase was 1% agarose containing 0.8% sodium chloride. The sample volumes were 25 μl. The probes were incubated for 72 h at 37° C. […]

[3] = methanol and cyclohexane; cited from earlier work
[4] = chloroform; cited from earlier work
[5] = Low strain oscillatory rheology (Rheometrics RFSII); assay type: physicochemical
Experimental: (triangles.) and 20° C. (circles). Other experimental conditions are as described for FIG. 6B.
Other experimental conditions and symbols are as described for FIG. 6C.
Of particular interest in this invention are the gels formed with Fmoc-Leu-Asp. At concentrations between 1 mg/ml and 1.5 mg/ml solutions of Fmoc-Leu-Asp undergo an abrupt increase in light scattering at both 20° C. and 60° C., as shown in FIG. 6A wherein 1 ml solutions in 1 cm diameter cylindrical cells were measured with a Brookhaven Instruments BI30ATN apparatus using a 633 nm 10 mW laser. When a solution of 2 mg/ml dipeptide is cooled from 100° C. to 60° C., viscoelastic parameters characteristic of a gel are obtained by low strain oscillatory measurements. The storage shear storage modulus, G', a measure of the elastic strength of the material, reaches a stable level of 80 Pa within several minutes (FIG. 6B). These measurements were made using a Rheometrics RFSII instrument1. The maximal shear strain was 1% for oscillatory deformation at a frequency of 1 rad/s. […] NY Acad. Sci. 408, 1-10, (1983) or F-actin, as shown in Janmey P. A. et al., Biochemistry 27, 8218-8227 (1988). […] G', shear storage modulus, depends weakly on frequency from 0.1 to 100 rad/s, and is much larger than the shear loss modulus G" (FIG. 6C). […]

[6] = Shear modulus by free oscillations using a torsion pendulum; assay type: physicochemical
Experimental: From this curve is calculated the shear modulus G^1.
The shear modulus was measured by free oscillations using a torsion pendulum. The theory and description of the method are described in Plazek D., Vrancke., Berge J., Trans. Soc. Rheol. 2, 38-47 (1958); Ferry J. Viscoelastic Properties of Polymers, Wiley New York (1980), and Janmey P., et al., J. Rheol. 27, 135-153 (1993). Gels are formed by method 1 using Tris buffer pH7.4. The peptide concentration in FIG. 1 is 2.5 mg/ml (0.25%). […] This denotes the moderately high elastic strength of this gel.

[7] = Solubility in water (Example 2); assay type: physicochemical
Experimental: as §1
Compound 5 is soluble below 0.8%. At concentrations below 0.4% little or no gel forms. When such a solution is evaporated to 50% volume and then heated and cooled, a gel forms.

[8] = Gel drying (evaporation of water); assay type: physicochemical
Experimental: Gels containing either 0.5-0.6% or 0.8% compound 5, gelatin, or starch are disolved in water at 90° C. and briefly cooled. The solutions (0.8 ml) are poured into shallow plastic dishes (17 mm inner diameter). On reaching room temperature, the dishes are weighed and left with desicants but without vacuum to dry. […] After 15 hours, the compound 5 gel has lost 57% of its water, but the gelatine and starch solutions have lost 70% and 87% of their water, respectively.

[9] = Preparation of gels in ethylether; assay type: physicochemical; settings: diethylether gel, -5° C.
Experimental: Suspend 150-200 mg finely ground compound 5 of table 2 in 10 mL boiling diethylether. Shake suspension, filter and let sit 30-60 minutes at -5° C. On cooling a gel forms. The peptide concentration can be measured by weighing the gel, and evaporating the solvent in vacuum to a constant weight. In this way a solute concentration of 1-1.2% was found.

SMILES: CC[C@H](C)[C@H](NC(=O)OCC1c2ccccc2-c2ccccc21)C(=O)N[C@@H](CC(=O)O)C(=O)O [compound 2, Fmoc--ile--Asp] (Fmoc-Ile-Asp-OH)
- Gel formed [1]: Yes
- Gel formed (minimum conc., %) [1]: 0.4%

SMILES: CC12CC3CC(N)(C1)CC(C(=O)O)(C3)C2.Cl (stereo not shown) [AdaMeC, 5-methyl-1-adamantanamine 3-carboxylic acid hydrochloride]
- concentration incorporated into Fmoc-Leu-Asp gels [2]: 33000 µM
- total concentration that inhibits gelation [2]: > 33 mM
- production of specific antibodies, injected alone (rabbits): neither Ada2Me (5 mM) nor AdaMeC (33 mM) produced specific antibodies

SMILES: NC12CC3CC(CC(C3)C1)C2 [adamantamine]
- antibody production in rabbits (rabbits; trapped in Fmoc-Leu-Asp gels without additional adjuvant, versus covalently linked to BSA and injected with adjuvant): at least as efficiently

SMILES: CCCCCCCCCCCCCCCC(=O)c1ccc(OC(=O)[C@H](C)NC(=O)OCc2ccccc2)c([N+](=O)[O-])c1 [N-benzyl-oxycarbonyl L-alanine 4-hexadecanoyl-2nitrophenyl ester]
- concentration at which thermally reversible gels form [3]: below 1%

SMILES: CC[C@H](C)[C@H](NC(=O)[C@@H](NC(=O)[C@@H](NC(=O)OC(C)(C)C)C(C)C)C(C)C)C(=O)OC [t-butoxycarbonyl-valyl-valylisoleucine methylester] (Boc-Val-Val-Ile-OMe)
- critical micelle concentration [4]: 2.5 mM

SMILES: CC12CC3CC(C)(C1)CC(N)(C3)C2.Cl [Ada2Me, 3,5-dimethyl-1-adamantanamine hydrochloride]
- concentration incorporated into Fmoc-Leu-Asp gels [2]: 1000 µM
- total concentration that inhibits gelation [2]: > 5 mM
- production of specific antibodies, injected alone (rabbits): neither Ada2Me (5 mM) nor AdaMeC (33 mM) produced specific antibodies

SMILES: CC(C)C[C@H](NC(=O)OCC1c2ccccc2-c2ccccc21)C(=O)N[C@@H](CC(=O)O)C(=O)O [compound 5, Fmoc--Leu--Asp] (Fmoc-Leu-Asp-OH)
- storage shear modulus G' ([5]; 2 mg/ml, cooled from 100° C. to 60° C., 1% maximal shear strain, 1 rad/s, stable level within several minutes): 80 Pa
- fall of both shear moduli (G', G") on strain, factor ([5]; samples strained to 10%): 100
- shear modulus ([6]; 2.5 mg/ml (0.25%), Tris buffer pH7.4, gel formed by method 1): 3.1 Pa
- saturation concentration ([6]; Tris buffer pH7.4): ~5 mg/mL
- gel formation with boric acid ([1]; 0.8% in 3.5% boric acid in boiling water, on cooling): a gel forms
- temperature at which the solution becomes turbid on cooling ([1]; 0.8% in boiled water): 50-60 °C
- Gel formed [1]: Yes
- Gel formed (minimum conc., %) [1]: 0.5%
- gel formation in glycerol solution ([1]; solutions of 70% glycerol): forms gels
- concentration at which little or no gel forms ([1]; water): below 0.4%
- concentration at which soluble in water [7]: below 0.8%
- gel formation on cooling ([8]; 0.5-0.6% or 0.8% in water dissolved at 90° C.): forms a gel on cooling
- water lost ([8]; after 15 hours, with desicants, without vacuum, room temperature): 57%
- solute concentration in the gel [9]: 1-1.2%
